Reference: patent publication US20120059011A1, “PHARMACEUTICAL COMPOSITIONS OF COMBINATIONS OF DIPEPTIDYL PEPTIDASE-4 INHIBITORS WITH PIOGLITAZONE” (priority 2009, published 2012)
Structures can show the parent of a compound that is named as a salt.

Assay: chemical stability of pioglitazone HCl with lubricants (disproportionation to free base)
Assay type: physicochemical
Settings: in contact with lubricants, such as magnesium stearate and sodium stearyl fumarate
Procedure: The pharmaceutical compositions of the present invention are prepared by wet processing methods. In one embodiment the pharmaceutical compositions are prepared by wet granulation methods, such as fluid bed granulation or high-shear granulation. In a class of this embodiment, the pharmaceutical compositions are prepared by fluid-bed granulation. Fluid bed granulation processing has the advantage of affording tablets with higher diametric strength. Further, wet processing methods utilizing an intragranular portion containing Sitagliptin phosphate monohydrate, Pioglitazone HCl, a binding agent, and optionally a disintegrant, enhance the chemical stability of Sitagliptin phosphate monohydrate and pioglitazone HCl. […] The fluid bed granulation method utilizing an intragranular portion containing Pioglitazone HCl, Sitagliptin phosphate monohydrate, a binding agent, and optionally a disintegrant, minimizes the disproportionation of Pioglitazone HCl to the pioglitazone free base.

- disproportionation of Pioglitazone HCl to the Pioglitazone free base: react with lubricants
Compound: CCc1ccc(CCOc2ccc(CC3SC(=O)NC3=O)cc2)nc1 (racemic) [Pioglitazone HCl, [(±)-5-[[4-[2-(5-ethyl-2-pyridinyl)ethoxy]phenyl]-methyl]-2,4-]thiazolidinedione monohydrochloride]
